We go through twelve compounds from patent publication US5216124A, “Substituted cyclic tetrapeptides” (G. D. Searle & Co., priority 1991, dated 1993).

For one test, the system named is CD Charles River mice. Kind of test: Writhing Assay (PBQ-induced writhing). Format: in vivo, mouse. As to conditions: for number of mice out of ten in which peptide was active, Intragastric: 10 mg/kg i.g., PBQ i.p. 15 min after dosing; for number of mice out of ten in which peptide was active, Subcutaneous: 10 mg/kg s.c., PBQ i.p. 25 min after dosing. The text has this: The "Writhing Assay" is one of the most widely-used experimental procedures for measuring the analgesic activity of different narcotic and nonnarcotic analgesic agents, and involves the continuous, chemically-induced pain of visceral origin to an animal, such as a mouse or rat. [Gyires et al., Arch. int. Pharmacodyn, 267, 131-140 (1984); C. Vander Wende et al., Fed. Proc., 15, 494 (1956); Koster et al., Fed. Proc., 18, 412 (1959); and Witken et al., J. Pharmacol. Exp. Ther., 133, 400-408 (1961). ] Chemicals which may be used to induce this pain include phenylbenzoquinone (PBQ) and acetic acid. As a result of the chemical irritation to the animal, a characteristic stretching and writhing of the animal (dorsiflexion of the animal's back, extension of its hindlimbs an the strong contraction of its abdominal musculature) will generally occur. […] Drugs which reduce the number of writhes of the animal appear to restore the normal nociceptive threshold of the animal.
This assay was conducted generally in the manner described by R. I. Taber, "Predictive Value of Analgesic Assays in Mice and Rats,"Advances in Biochemical Psychopharmacology, 8, 191 (1974). The Methyl Ester Tetrapeptide and Test Tetrapeptides Nos. 1, 3, 4, 5, 6, 7, 8 and 9 were tested in this assay.
Two hundred CD Charles River mice, weighing 20 to 30 grams were used in this assay.
Twenty-five minutes after subcutaneous administration, and fifteen minutes after intragastric administration, to the mice of 10 mg per kilogram of body weight of either a Test Tetrapeptide or the Methyl Ester Tetrapeptide, […] of body weight of a 0.025% w/v solution of PBQ was injected intraperitoneally into each mouse. Some mice were given saline in place of a Test Tetrapeptide or the Methyl Ester Tetrapeptide, and were used as a control group.
Five minutes later, each mouse was individually placed into a glass beaker for observation, and the number of writhes occurring during the following ten-minute period was counted.
A tetrapeptide compound was considered to be "active" (to have produced analgesia in a mouse) if, in accordance with the conditions set forth above, and under the test criteria employed for this assay, after the administration of 10 mg per kilogram of body weight of the tetrapeptide to the mouse, the number of writhes elicited by a mouse injected with PBQ was equal to, or less than, one-half the median number of writhes recorded for the saline-treated control group of mice that day, as described by R. I. Taber, supra.
The standard initial screening dose of a compound employed in this assay was 10 mg per kilogram (mpk) of body weight for both routes of administration. If this initial screening dose of the tetrapeptide produced analgesia in seven of ten mice, then the effect of additional doses of the tetrapeptide on the writhing response was evaluated, and then the ED50 value (that dose of a Test Tetrapeptide or the Methyl Ester Tetrapeptide which produced analgesia in 50% of the mice to which the tetrapeptide was administered) was generally calculated. A maximum likelihood function was used to determine the ED50 value. (The slopes of the dose-response curves for all tetrapeptides analyzed were compared as described by Tallarida and Murray, Manual of Pharmacologic Calculations, Page 11 (Springer Verlag, N.Y., 1981)).
On the technique in general: An intraperitoneal irritant provokes the stretching counted in writhing tests.

The next test addresses δ opioid receptors (Rattus norvegicus, UniProt P33533). Briefly: Opiate Binding Assay, displacement of 3[H]-DSLET. The following applies: ratio of mean IC50 μ to δ, above 1.0 = more specific for δ.

Counter-ions that a name gives are not always drawn. Positions of bridges follow the written chain, without caps; N, C: chain ends. Non-standard residues stand in square brackets, D forms with d. Residues, ends and D or L forms follow the SMILES beside them. Phe(4-F) = N[C@@H](Cc1ccc(F)cc1)C(=O)O; Dmt = Cc1cc(O)cc(C)c1C[C@H](N)C(=O)O; NMeCha = CN[C@@H](CC1CCCCC1)C(=O)O; NMeF = CN[C@@H](Cc1ccccc1)C(=O)O; 2Thi = N[C@@H](Cc1cccs1)C(=O)O; Cha = N[C@@H](CC1CCCCC1)C(=O)O; dPen = CC(C)(S)[C@@H](N)C(=O)O

δ opioid receptors, sequence (P33533 whole entry): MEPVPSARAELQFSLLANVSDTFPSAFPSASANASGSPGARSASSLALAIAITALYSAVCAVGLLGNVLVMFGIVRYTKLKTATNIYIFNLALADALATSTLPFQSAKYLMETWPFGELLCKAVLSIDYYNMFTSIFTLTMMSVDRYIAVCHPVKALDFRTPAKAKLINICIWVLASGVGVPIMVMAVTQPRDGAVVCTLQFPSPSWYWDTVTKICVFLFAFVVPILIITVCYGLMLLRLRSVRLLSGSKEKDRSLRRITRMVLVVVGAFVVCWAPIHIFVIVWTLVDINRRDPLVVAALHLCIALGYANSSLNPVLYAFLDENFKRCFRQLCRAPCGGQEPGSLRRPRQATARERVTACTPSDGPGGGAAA

Consider `COC(=O)[C@@H]1NC(=O)[C@H](Cc2ccccc2)N(C)C(=O)[C@H](NC(=O)[C@@H](N)Cc2c(C)cc(O)cc2C)CSSC1(C)C` [Example 39, 2,6-dimethyl-L-tyrosyl-D-cysteinyl-N-methyl-L-phenylalanyl-3-mercapto-D-valine, cyclic (2→4)-disulfide, methyl ester, monohydrochloride] (H-[Dmt][dC][NMeF][dPen]-OMe; disulfide 2-4), for which, in the test with CD Charles River mice, the “number of mice out of ten in which peptide was active, Intragastric” value (“number of mice out of ten … Intragastric” below) is on record as 5/10 and the “number of mice out of ten in which peptide was active, Subcutaneous” value (from here on “number of mice out of ten … Subcutaneous”) is 4/10. The “Mean IC50 Value μ/δ Ratio” value at δ opioid receptors came out at 6.0.

As for `COC(=O)[C@@H]1NC(=O)[C@H](CC2CCCCC2)N(C)C(=O)[C@H](NC(=O)[C@@H](N)Cc2c(C)cc(O)cc2C)CSSC1(C)C` [Example 53, 2,6-dimethyl-L-tyrosyl-D-cysteinyl-3-cyclohexyl-N-methyl-L-alanyl-3-mercapto-D-valine, cyclic (2→4)-disulfide, methyl ester, monohydrochloride] (H-[Dmt][dC][NMeCha][dPen]-OMe; disulfide 2-4), in the test with CD Charles River mice, the “number of mice out of ten … Intragastric” value is 3/10 and the “number of mice out of ten … Subcutaneous” value is 3/10. Further, the “Mean IC50 Value μ/δ Ratio” value on δ opioid receptors is on record as 12.

On to `COC(=O)[C@@H]1NC(=O)[C@H](Cc2cccs2)NC(=O)[C@H](NC(=O)[C@@H](N)Cc2c(C)cc(O)cc2C)CSSC1(C)C` [Example 60, 2,6-dimethyl-L-tyrosyl-D-cysteinyl-3-(2-thienyl)-L-alanyl-3-mercapto-D-valine, cyclic (2→4)-disulfide, methyl ester, monohydrochloride] (H-[Dmt][dC][2Thi][dPen]-OMe; disulfide 2-4), for which, at δ opioid receptors, the “Mean IC50 Value μ/δ Ratio” value came out at 1.4.

As to `Cc1ccc(CC(N)C(=O)N[C@@H]2CSSC(C)(C)[C@H](C(=O)O)NC(=O)[C@H](Cc3ccccc3)NC2=O)c(C)c1O` (single isomer, unassigned) [Example 81 (Diastereomer A), 3-hydroxy-2,4-dimethylphenylalanyl-D-cysteinyl-L-phenylalanyl-3-mercapto-D-valine, cyclic (2→4)-disulfide, monohydrochloride], at δ opioid receptors (monohydrochloride), the “Mean IC50 Value μ/δ Ratio” value was 0.1.

Turning to `COC(=O)[C@@H]1NC(=O)[C@H](Cc2ccc(F)cc2)NC(=O)[C@H](NC(=O)[C@@H](N)Cc2c(C)cc(O)cc2C)CSSC1(C)C` [Example 67, 2,6-dimethyl-L-tyrosyl-D-cysteinyl-4-fluoro-L-phenylalanyl-3-mercapto-D-valine, cyclic (2→4)-disulfide, methyl ester, monohydrochloride] (H-[Dmt][dC][Phe(4-F)][dPen]-OMe; disulfide 2-4), in the test with CD Charles River mice, the “number of mice out of ten … Intragastric” value is on record as 1/10 and the “number of mice out of ten … Subcutaneous” value is on record as 2/10. Also, the “Mean IC50 Value μ/δ Ratio” value on δ opioid receptors was 2.4.

`COC(=O)[C@@H]1NC(=O)[C@H](CC2CCCCC2)NC(=O)[C@H](NC(=O)[C@@H](N)Cc2c(C)cc(O)cc2C)CSSC1(C)C` [Example 46, 2,6-dimethyl-L-tyrosyl-D-cysteinyl-3-cyclohexyl-L-alanyl-3-mercapto-D-valine, cyclic (2→4)-disulfide, methyl ester, monohydrochloride] (H-[Dmt][dC][Cha][dPen]-OMe; disulfide 2-4): in the test with CD Charles River mice, the “number of mice out of ten … Intragastric” value is on record as 4/10 and the “number of mice out of ten … Subcutaneous” value was 5/10. In addition, on δ opioid receptors, the “Mean IC50 Value μ/δ Ratio” value is on record as 0.6.

For `COC(=O)[C@@H]1NC(=O)[C@H](Cc2ccccc2)NC(=O)C(NC(=O)[C@@H](N)Cc2c(C)cc(O)cc2C)CCSSC1(C)C` (single isomer, unassigned) [Example 72, 2,6-dimethyl-L-tyrosylhomocysteinyl-L-phenylalanyl-3-mercapto-D-valine, cyclic (2→4)-disulfide, methyl ester, monohydrochloride], the “number of mice out of ten … Intragastric” value with CD Charles River mice (listed as Test Tetrapeptide No. 4, monohydrochloride, 10 mg/kg) was 1/10. The “number of mice out of ten … Subcutaneous” value in the test on CD Charles River mice is 6/10. Moreover, the “Mean IC50 Value μ/δ Ratio” value at δ opioid receptors (monohydrochloride) is given as 0.4.

Turning to `COC(=O)[C@@H]1NC(=O)[C@H](Cc2ccccc2)NC(=O)C(NC(=O)[C@@H](N)Cc2c(C)cc(O)cc2C)CCSSC1(C)C` (single isomer, unassigned) [Example 73, 2,6-dimethyl-L-tyrosylhomocysteinyl-L-phenylalanyl-3-mercapto-D-valine, cyclic (2→4)-disulfide, methyl ester, monohydrochloride], the “number of mice out of ten … Intragastric” value with CD Charles River mice (listed as Test Tetrapeptide No. 5, monohydrochloride, 10 mg/kg) was 5/10. Moreover, the “number of mice out of ten … Subcutaneous” value in the test on CD Charles River mice is reported as 6/10. The “Mean IC50 Value μ/δ Ratio” value at δ opioid receptors (monohydrochloride) was found to be 0.10.

In the case of `Cc1cc(O)c(C)c(C)c1CC(N)C(=O)N[C@@H]1CSSC(C)(C)[C@H](C(=O)O)NC(=O)[C@H](Cc2ccccc2)NC1=O` (single isomer, unassigned) [Example 82 (Diastereomer B), 2,3,6-trimethyltyrosyl-D-cysteinyl-L-phenylalanyl-3-mercapto-D-valine, cyclic (2→4)-disulfide, monohydrochloride], the “Mean IC50 Value μ/δ Ratio” value at δ opioid receptors was 81.

Take `Cc1cc(O)ccc1CC(N)C(=O)N[C@@H]1CSSC(C)(C)[C@H](C(=O)O)NC(=O)[C@H](Cc2ccccc2)NC1=O` (single isomer, unassigned) [Example 5 (Diastereomer B)]: the “Mean IC50 Value μ/δ Ratio” value at δ opioid receptors was found to be 15.

For `Cc1cc(O)ccc1CC(N)C(=O)N[C@@H]1CSSC(C)(C)[C@H](C(=O)O)NC(=O)[C@H](Cc2ccccc2)NC1=O` (single isomer, unassigned) [Example 5 (Diastereomer A)], at δ opioid receptors, the “Mean IC50 Value μ/δ Ratio” value amounted to 48.

In the case of `Cc1ccc(CC(N)C(=O)N[C@@H]2CSSC(C)(C)[C@H](C(=O)O)NC(=O)[C@H](Cc3ccccc3)NC2=O)c(C)c1O` (single isomer, unassigned) [Example 81 (Diastereomer B), 3-hydroxy-2,4-dimethylphenylalanyl-D-cysteinyl-L-phenylalanyl-3-mercapto-D-valine, cyclic (2→4)-disulfide, monohydrochloride], the “Mean IC50 Value μ/δ Ratio” value on δ opioid receptors (monohydrochloride) is given as 19.
